These results are taken from patent publication US20230285570A1, “THERAPEUTICALLY USEFUL CURE-PRO MOLECULES FOR E3 LIGASE MEDIATED DEGRADATION OF PROTEINS, AND METHODS OF MAKING AND USING THEM” (CORNELL UNIVERSITY, priority 2020, published 2023).

“Also recorded” adds a separate entry of the source.

Experiment [1] deals with MV-4-11 cells. Nature of the experiment: CellTiter-Glo cell viability, MV-4-11 cells. It is filed as cell-based. The following applies: co-dosed 1:1 with CRBN ligand 8049, MV-4-11, 24 h, 1 nM-100 μM each. A digest of the protocol: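 Viability by CellTiter-Glo luminescence. One protocol: 5×10^4 MV-4-11 cells, 24 h, compounds at 1 nM-100 μM each; other: 1×10^4 cells, 72 h, 10 nM-100 μM each. BRD ligands combined 1:1 with CRBN ligands; dose-response curves fitted.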

Experiment [2] concerns the target T1, BRD3 (Homo sapiens, UniProt Q15059).
T1 construct: endogenous in cells; host or cells: HCT116
The experiment is described as follows: BRD protein family degradation in HCT116 cells, Western blot: BRD3. It counts as cell-based. The following applies: 1:1 with MDM2 ligands 8310 and 8312 (each), HCT116, 24 h, 100 nM-10 μM. The method, then:
(§1) Namalwa, Ramosm HeLa, MCF7, or HT29 HCT116 cells (2.5-3×10^6) were treated for 24 hours with the indicated compounds solubilized in DMSO. The cells were washed in ice-cold PBS and were then lysed in RIPA lysis buffer (150 mM NaCl, 5 mM EDTA, 1% NP-40, 0.5% sodium deoxycholate, 0.1% SDS, 50 mM Tris, pH 8.0.) with Roche protease inhibitor complete cocktail and phosphatase inhibitors (10 mM sodium fluoride, 10 mM sodium pyrophosphate, 1 mM sodium orthovanadate and 20 mM β-glycerophosphate). The total protein concentrations were determined by Bradford Protein Assay (Pierce) and 10-20 μg of protein was loaded onto 4-15% Tris-Glycine gradient gels (Biorad). After standard gel electrophoresis, the separated proteins were transferred to PVDF membrane by wet transfer. The immunoblots were then blocked for 1 hour in 5% skim milk in TBST or 5% BSA in TBST, according to manufacturer's instructions, before an overnight incubation at 4° C. with indicated antibodies and membranes. […] Signal was detected with ECL Western Blotting Substrate (Pierce) and X-ray film processed with a Konica SRX-101 X-ray film processor or captured by Bio-Rad's Chemidoc Imaging system. […]
(A western blot detects proteins with antibodies after separation by electrophoresis.)

The target in experiment [3] is T2, BRD2 (Homo sapiens, UniProt P25440).
T2 construct: endogenous in cells; host or cells: HCT116
T2 sequence (P25440 whole entry): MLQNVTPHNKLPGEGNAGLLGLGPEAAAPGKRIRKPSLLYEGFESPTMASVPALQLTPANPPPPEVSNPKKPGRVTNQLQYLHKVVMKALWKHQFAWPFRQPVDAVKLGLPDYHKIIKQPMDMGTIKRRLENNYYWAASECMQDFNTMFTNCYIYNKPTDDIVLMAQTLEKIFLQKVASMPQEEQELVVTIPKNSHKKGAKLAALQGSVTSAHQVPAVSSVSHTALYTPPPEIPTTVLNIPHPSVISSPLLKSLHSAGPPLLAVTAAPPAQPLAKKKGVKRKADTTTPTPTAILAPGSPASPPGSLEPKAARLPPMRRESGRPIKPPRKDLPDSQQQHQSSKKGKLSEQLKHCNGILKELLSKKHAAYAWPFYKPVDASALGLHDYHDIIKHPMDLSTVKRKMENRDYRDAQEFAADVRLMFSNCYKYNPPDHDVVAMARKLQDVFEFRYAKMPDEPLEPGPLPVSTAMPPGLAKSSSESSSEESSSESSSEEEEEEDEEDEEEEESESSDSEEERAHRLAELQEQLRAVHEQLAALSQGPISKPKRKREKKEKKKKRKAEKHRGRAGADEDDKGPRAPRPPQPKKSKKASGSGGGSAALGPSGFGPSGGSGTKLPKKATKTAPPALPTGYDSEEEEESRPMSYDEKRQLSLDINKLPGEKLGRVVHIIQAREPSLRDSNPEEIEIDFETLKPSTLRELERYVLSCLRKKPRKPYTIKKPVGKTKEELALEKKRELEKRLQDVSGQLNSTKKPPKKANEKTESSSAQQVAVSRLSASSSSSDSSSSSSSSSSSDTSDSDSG
The experiment is described as follows: BRD protein family degradation in HCT116 cells, Western blot: BRD2. It is filed as cell-based. Conditions: 1:1 with MDM2 ligands 8310 and 8312 (each), HCT116, 24 h, 100 nM-10 μM. On the procedure: as §1

Experiment [4] has as its system SLC19A1. The experiment is described as follows: RT-PCR of c-MYC downstream target gene SLC19A1 in HeLa cells. Conditions: combined with MDM2 ligand 8312, HeLa, 10 μM each, 24 h. It is filed as cell-based, Human. On the procedure:
The suppression of the expression of the downstream c-MYC target, SLC19A1, was measured by RT-PCR using Power SYBR® Green Cells-to-Ct™ Kit (Life Technologies). Adherent cells were plated on 96 well plates at 5,000 cells per well were treated for 24 h with monomer compounds and compounds capable of reversible interactions (1 nM-100 μM). Cells were subsequently washed in ice-cold PBS processed according to the manufacturer's instructions. Quantitative real-time PCR was performed using a ViiA™ 7 Real-time PCR System (Applied Biosystems, Foster City, Calif., USA). GAPDH and ACTB served as internal controls.
HeLa cells (1×10^4) were treated for 24 hours in 96 well plates with the compounds solubilized in DMSO. Compounds were added at 10 μM each and RNA expression measured by the Cells-to Ct method described above (Thermofisher).

Experiment [5] deals with T3, BRD4 (Homo sapiens, UniProt O60885). Nature of the experiment: CURE-PRO-mediated BRD4 degradation in HCT116 cells, WES (ProteinSimple). It counts as cell-based. Also noted: endogenous in cells. Conditions: for BRD4 degradation: 10 μM. The method, then:
All cell lines were purchased from ATCC or DSMZ and grown at 37° C. with 5% CO2. Human HeLa cells were cultured in complete growth medium (Dulbecco's modified Eagle's medium (DMEM) supplemented with 10% FBS); MCF7 cells were cultured in complete growth medium (Dulbecco's modified Eagle's medium (DMEM) supplemented with 10% FBS and 0.01 mg/ml human recombinant insulin (Sigma Aldrich); Namalwa and Ramos cells were cultured in complete growth medium (RPMI 1640 medium supplemented with 10% FBS); HCT116 and HT29 cells were cultured in complete growth medium (McCoy's 5a Medium supplemented with 10% FBS). For cellular degradation of BRD4 studies cells were seeded in a 12-well plate at 70-80% confluency, allowed to attach overnight, and incubated with the indicated compounds for the indicated time. When indicated, a 15-minute pretreatment with 10 μM pomalidomide, 10 μM VHL298, 10 μM Nutlin3a, 1 μM MG-132 or 1 μM Carfilzomib was performed before the addition of CURE-PROs. For washout studies, after CURE-PRO treatment, media was aspirated and incubated with complete medium for the indicated time before lysis.
WES Simple analysis was performed on WES system (ProteinSimple-Biotechne) according to the manufacturer's instructions. Total protein concentrations of cell lysates were determined by the Pierce BCA kit (Thermo Fisher). 3 μL of 0.3 μg/μL of the protein lysate was loaded onto a 12- to 230-kDa WES assay plate (ProteinSimple) where 300 nL sample was withdrawn through a capillary, subjected to electrophoretic separation of proteins by size, and followed by the simultaneous, HRP-based detection of proteins using the Anti-Rabbit Detection Module (Proteinsimple: #DM-001). The electropherograms were checked then the automatic peak detection was manually corrected if it was required.
HCT116 cells (3×10^6) were treated for 24 hours with the compounds solubilized in DMSO. Compounds were added at 1 μM-10 μM each. Standardized protein samples were electrophoresed and imaged as described in the WES ProteinSimple section above. FIGS. 59, 60, and 61 depict the concentration-dependence of CURE-PRO-mediated BRD4 degradation using MDM2 ligands.
HCT116 cells (3×10^6) were treated for 24 hours with the compounds solubilized in DMSO. Compounds were added at 1 μM-10 μM each. Standardized protein samples were electrophoresed and imaged as described in the WES ProteinSimple section above. FIGS. 62 and 63 depict the concentration-dependence of CURE-PRO-mediated BRD4 degradation using MDM2 ligands.
HCT116 cells (3×10^6) were treated for 24 hours with the compounds solubilized in DMSO. CURE-PRO monomers were added at 10 μM each and the proteasomal inhibitors at 1 μM. Standardized protein samples were electrophoresed and imaged as described in the WES ProteinSimple section above. FIG. 68 depicts the dependence of the proteasome for CURE-PRO-mediated BRD4 degradation.

Experiment [6] has as its target T3, BRD4. The experiment is described as follows: BRD protein family degradation in HCT116 cells, Western blot: BRD4. It is filed as cell-based. Also noted: endogenous in cells. On the procedure: Namalwa, Ramosm HeLa, MCF7, or HT29 HCT116 cells (2.5-3×10^6) were treated for 24 hours with the indicated compounds solubilized in DMSO. The cells were washed in ice-cold PBS and were then lysed in RIPA lysis buffer (150 mM NaCl, 5 mM EDTA, 1% NP-40, 0.5% sodium deoxycholate, 0.1% SDS, 50 mM Tris, pH 8.0.) with Roche protease inhibitor complete cocktail and phosphatase inhibitors (10 mM sodium fluoride, 10 mM sodium pyrophosphate, 1 mM sodium orthovanadate and 20 mM β-glycerophosphate). The total protein concentrations were determined by Bradford Protein Assay (Pierce) and 10-20 μg of protein was loaded onto 4-15% Tris-Glycine gradient gels (Biorad). After standard gel electrophoresis, the separated proteins were transferred to PVDF membrane by wet transfer. The immunoblots were then blocked for 1 hour in 5% skim milk in TBST or 5% BSA in TBST, according to manufacturer's instructions, before an overnight incubation at 4° C. with indicated antibodies and membranes. Membranes were then incubated with the appropriate horseradish peroxidase-conjugated secondary antibodies (1:5,000 dilution) for 1 h at room temperature and the bands were visualized using the Clarity Max Western ECL Substrate (Biorad) and the ChemiDoc Imaging System (Biorad). Signal was detected with ECL Western Blotting Substrate (Pierce) and X-ray film processed with a Konica SRX-101 X-ray film processor or captured by Bio-Rad's Chemidoc Imaging system.
HCT116 cells (3×10^6) were treated for 24 hours with the compounds solubilized in DMSO. Compounds were added at 100 nM-10 μM each. Standardized protein samples were electrophoresed and imaged as described in the Immunoblotting section above. FIGS. 64 and 65 depict the concentration-dependence of CURE-PRO-mediated BRD2 and BRD3 degradation using MDM2 ligands.

The target of experiment [7] is T3, BRD4. Nature of the experiment: Summary of BRD4 degradation by CURE-PRO pairs, estimated from Western Blot or WES. It is filed as cell-based. Also noted: endogenous in cells. The essentials: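 Namalwa, Ramos, HeLa, MCF7, HT29 or HCT116 cells treated 24 h with compounds in DMSO; RIPA lysates analysed by Western blot (ECL) or capillary WES immunodetection. Check mark denotes 30% to 70% or higher protein degradation.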

T1 sequence (Q15059 whole entry): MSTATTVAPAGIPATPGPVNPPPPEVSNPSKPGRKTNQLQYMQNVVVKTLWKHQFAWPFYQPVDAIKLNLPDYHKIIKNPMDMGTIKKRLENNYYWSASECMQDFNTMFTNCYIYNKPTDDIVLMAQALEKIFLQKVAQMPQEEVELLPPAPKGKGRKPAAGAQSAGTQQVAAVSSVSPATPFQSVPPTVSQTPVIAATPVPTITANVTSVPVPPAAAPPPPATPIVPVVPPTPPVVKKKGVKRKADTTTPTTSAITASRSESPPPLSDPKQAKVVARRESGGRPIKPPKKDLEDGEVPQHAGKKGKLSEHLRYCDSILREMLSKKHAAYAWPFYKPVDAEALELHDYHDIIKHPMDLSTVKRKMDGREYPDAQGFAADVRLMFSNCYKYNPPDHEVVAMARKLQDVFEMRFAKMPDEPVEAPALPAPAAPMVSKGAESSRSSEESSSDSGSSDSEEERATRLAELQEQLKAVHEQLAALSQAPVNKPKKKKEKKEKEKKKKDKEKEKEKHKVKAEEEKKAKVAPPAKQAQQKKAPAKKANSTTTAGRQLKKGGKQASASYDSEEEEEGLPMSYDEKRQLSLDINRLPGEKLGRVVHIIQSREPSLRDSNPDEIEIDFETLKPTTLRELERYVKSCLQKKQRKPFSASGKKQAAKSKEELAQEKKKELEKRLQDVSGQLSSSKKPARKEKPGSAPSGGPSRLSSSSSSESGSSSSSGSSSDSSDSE

Consider `CCNC(=O)C[C@@H]1N=C(c2ccc(Cl)cc2)c2cc(OCCNC(=O)c3cccc(O)c3O)ccc2-n2c(C)nnc21` [BRD-N25], for which the “loss of cellular viability (toxicity)” value in experiment [1] is “concentration-dependent loss in cellular viability; also recorded: increased toxicity”. In experiment [2], the BRD3 degradation result is listed as “degradation of BRD3; also recorded: Degradation is evident”. In addition, the BRD2 degradation result in experiment [3] is “BRD2 to a lesser extent; also recorded: Degradation is evident”. Further, the “suppression of SLC19A1 expression” value in experiment [4] was “suppressed more substantially”. Moreover, in experiment [5] (1:1 with 8310 at 10 μM, pre-incubation with MG-132 and Carfilzomib 1 μM, HCT116), the “BRD4 degradation with proteasome inhibitors” value is “inhibited by the pre-incubation with MG-132 and Carfilzomib; also recorded: inhibited with the proteasome inhibitors, MG-132 and Carfilzomib”. The BRD4 degradation entry in experiment [5] (1:1 with MDM2 ligand 8310, HCT116, 24 h) is given as “caused BRD4 degradation; also recorded: marked BRD4 degradation”; in experiment [5] (1:1 with MDM2 ligand 8312, HCT116, 24 h), “caused BRD4 degradation”; in experiment [6] (1:1 with MDM2 ligands 8310 and 8312 (each), HCT116, 24 h, 100 nM-10 μM), “caused BRD4 degradation; also recorded: Degradation is evident”. Moreover, the “selectivity of degradation among BRD2, BRD3 and BRD4” value in experiment [6] (with MDM2 ligands 8310 and 8312, HCT116, Western blot) is “some selectivity for BRD3 and BRD4 over BRD2 for 8310 is noted”. For the same molecule, the “Degradation of BRD4, combination with MDM2 ligand 8310” value in experiment [7] (Table 5, aromatic 1,2-diol BRD4 ligand + 8310) is on record as “√ (A black check mark indicates efficacy of 30% to 70% or higher protein degradation)”. For the same molecule, in experiment [7] (Table 5, aromatic 1,2-diol BRD4 ligand + 8312), the “Degradation of BRD4, combination with MDM2 ligand 8312” value is given as “√ (A black check mark indicates efficacy of 30% to 70% or higher protein degradation)”.
